Measurements published in patent US20250084096A1, “TERT-BUTYL (S)-2-(4-(PHENYL)-6H-THIENO[3, 2-F][1, 2, 4]TRIAZOLO[4, 3-A] [1,4]DIAZEPIN-6-YL) ACETATE DERIVATIVES AND RELATED COMPOUNDS AS BROMODOMAIN BRD4 INHIBITORS FOR TREATING CANCER” (Genentech, Inc., priority 2018, published 2025).

Columns and labels:
BRD4_BD1 bromodomain = BRD4_BD1 bromodomain (Homo sapiens (Human), UniProt O60885); test: BRD4 BD1 biochemical binding assay (TR-FRET); details: displacement of biotinylated ligand Compound C
Experimental: (§1) The following assay was used to measure the IC50 for the test compounds ability to bind to the BRD4_BD1 and BRD4_BD2 bromodomains.
(§2) DMSO was backfilled to a final volume of 30 nL as required. […] 1× Assay Buffer was dispensed (5 μL per well) into Minimum Signal control wells. 5 μL of Solution A-3× was dispensed into test wells and Maximum Signal control wells (containing DMSO instead of test compound). Samples were incubated 10 minutes at room temperature. 5 μL of Solution B-3x was dispensed into all wells. Samples were incubated incubate for 10 minutes at room temperature. 5 μL of Solution C-3x was dispensed into all wells. Samples were incubated 40 minutes at room temperature. Plates were read using an Envision (Perkin Elmer) with the following settings: Detection—LANCE Dual Laser 50/200. […] Percentage inhibition was calculated relative to the Minimum Signal control and Maximum Signal control wells. IC50 values were derived by four parameter curve fitting using the Robust method.

BRD4 [1] = target: T1, BRD4 (Homo sapiens (Human), UniProt O60885); test: BRD4 degradation assay in EoL-1 cells; assay type: cell-based; details: for DC50: 4 hours, immunofluorescence, read-out: Degradation of BRD4 Average EC50; for Dmax: EOL1, 4 hours, complete loss = −100%, read-out: Sinf (maximum degradation, percent change in protein level)
Experimental: 2 μL of each sample from the serial dilution was transferred to 98 μL of assay media as an intermediate dilution. 5 μL of each well of the intermediate dilution was added to 45 μL of cell plate. Columns 1, 2, 23 and 24 were treated with only 0.2% final concentration of DMSO for data normalization as “neutral controls”. After compound treatment, cell plates were stored in a 37° C. incubator for 4 hours.
The cell plate was incubated at room temperature for 20 minutes. Well contents were aspirated and washed with 100 μL/well PBS 3 times. 50 μL/well of PBS (pH7.5) containing 0.5% w/v bovine serum albumen, 0.5% w/v Triton X-100 (Block/Permeabilzation Buffer) was added to each well. Samples were incubated for 20 minutes. Well contents were aspirated and washed 3 times with 100 μL/well of PBS. PBS was aspirated from the well and 50 μL per well of EoL-1 Block Buffer (PBS containing 10% Normal Goat Serum (Abcam #ab7481)) was added to each well. Plates were incubated at room temperature for 30 minutes. Block buffer was decanted from the wells.
25 μL per well of BRD4 antibody diluted in buffer was added and incubated overnight at 4° C. On day-2 samples were washed 3 times with 100 μL/well of PBS. […] Samples were incubated for 2 hours at room temperature. Samples were washed 3 times with 100 μL PBS.
(§3) Quantitative fluorescence imaging of BRD4 was carried out using an Opera Phenix High-Content Screening System. […] Hoechst channel was used to identify nuclear region. […] Data analysis was carried out using Genedata Screener, with DMSO and no primary antibody control treated samples being used to define the 0% and 100% changes in BRD4. The dose-response log(inhibitor) vs. response was used to define the inflexion point of curve (IC50) and the plateau of the maximal effect. The Sinf value reports degradation as percent change in protein level, so complete loss of the protein target is −100%. Sinf is the maximum degradation achieved, obtained by determining the bottom of a dose-response (where the S-shaped curve levels out).

BRD4 [2] = target: T1, BRD4; test: BRD4 degradation assay in PC3-Steap1 cells; assay type: cell-based; details: 4 hours; for Dmax: complete loss = −100%, read-out: Sinf (maximum degradation, percent change in protein level); for DC50: immunofluorescence, read-out: Degradation of BRD4 Average EC50
Experimental: 2 μL of each sample from the serial dilution was transferred to 98 μL of assay media as an intermediate dilution. 5 μL of intermediate dilution was added to 45 μL of cell plate. Columns 1, 2, 23 and 24 were treated with only 0.2% w/v final concentration of DMSO for data normalization as “neutral controls”. After compound treatment, cell plates were stored in a 37° C. incubator for 4 hours.
Cell plate was incubated at room temperature for 20 minutes. Well contents were aspirated and washed with 100 μL/well PBS 3 times. 50 μL/well of PBS containing 0.5% w/v bovine serum albumen, 0.5% w/v Triton X-100 (Antibody Dilution Buffer) was added to each well. Samples were incubated for 30 minutes. Well contents were aspirated and washed 3 times with 100 μL/well of PBS. PBS was aspirated from the wells.
25 μL per well of BRD4 antibody diluted in buffer was added and incubated overnight at 4° C. On day-3 samples were washed 3 times with 100 μL/well of PBS. […] Samples were incubated for 2 hours at room temperature. Samples were washed 3 times with 100 μL PBS.
as §3, with “The […]” for “The Sinf”

BRD4_BD2 bromodomain = BRD4_BD2 bromodomain (Homo sapiens (Human), UniProt O60885); test: BRD4 BD2 biochemical binding assay (TR-FRET); details: displacement of biotinylated ligand Compound C
Experimental: as §1, §2

MYC expression = test: Myc mRNA assay in MV-4-11 cells; assay type: cell-based; details: for Maximum Inhibition (%) (mean) of MYC expression: 4 hours, QuantiGene 2.0; for IC50: Homo sapiens, MV4-11, 4 hours, QuantiGene 2.0, read-out: Inhibition of MYC expression Average IC50
Experimental: Pharmacologic inhibition of MYC is achievable through targeting BET bromodomains through small molecule binder or degrader mechanisms.
Test compounds diluted in DMSO were transferred to the cell plates, keeping final DMSO concentration consistent at 0.1%, and incubated for 4 hours at 37° C. […] Luminescence was read using an EnVision plate reader (PerkinElmer) and IC50s generated in Genedata Screener using a 4-parameter non-linear regression fit.

Structure (SMILES) | IC50 (BRD4_BD1 bromodomain) [µM] | DC50 (BRD4 [1]) [µM] | Dmax (BRD4 [1]) [%] | Dmax (BRD4 [2]) [%] | DC50 (BRD4 [2]) [µM] | IC50 (BRD4_BD2 bromodomain) [µM] | Maximum Inhibition (%) (mean) of MYC expression (MYC expression) | IC50 (MYC expression) [µM]
Cc1sc2c(c1C)C(c1ccc(C#CCN)cc1)=N[C@@H](CC(=O)OC(C)(C)C)c1nnc(C)n1-2 [Compound 1a, tert-butyl (S)-2-(4-(4-(3-aminoprop-1-yn-1-yl)phenyl)-2,3,9-trimethyl-6H-thieno[3,2-f][1,2,4]triazolo[4,3-a][1,4]diazepin-6-yl)acetate] | 0.0155 | 0.0013 | -83.8 | -84.6 | 0.0014 | 0.0123 | 89.1 | 0.0029
Cc1sc2c(c1C)C(c1ccc(C#CCN)cc1)=N[C@H](CC(=O)OC(C)(C)C)c1nnc(C)n1-2 [Compound 1b, tert-butyl (R)-2-(4-(4-(3-aminoprop-1-yn-1-yl)phenyl)-2,3,9-trimethyl-6H-thieno[3,2-f][1,2,4]triazolo[4,3-a][1,4]diazepin-6-yl)acetate] | 0.199 | 0.009 | -87 | -74.5 | 0.0105 | 0.272 | 86.6 | 0.0675
CNCC#Cc1ccc(C2=N[C@@H](CC(=O)OC(C)(C)C)c3nnc(C)n3-c3sc(C)c(C)c32)cc1 [Compound 2a, tert-butyl (S)-2-(2,3,9-trimethyl-4-(4-(3-(methylamino)prop-1-yn-1-yl)phenyl)-6H-thieno[3,2-f][1,2,4]triazolo[4,3-a][1,4]diazepin-6-yl)acetate] | 0.0144 | > 20 |  | -21.8 | > 20 | 0.0171 | 77.9 | 0.0111
Cc1sc2c(c1C)C(c1ccc(C#CCCN)cc1)=N[C@@H](CC(=O)OC(C)(C)C)c1nnc(C)n1-2 [Compound 4a, tert-butyl (S)-2-(4-(4-(4-aminobut-1-yn-1-yl)phenyl)-2,3,9-trimethyl-6H-thieno[3,2-f][1,2,4]triazolo[4,3-a][1,4]diazepin-6-yl)acetate] | 0.013 |  |  | -54.7 | 0.0034 | 0.0177 | 79.4 | 0.0198
Cc1sc2c(c1C)C(c1ccc(C#CCNC(=N)N)cc1)=N[C@@H](CC(=O)OC(C)(C)C)c1nnc(C)n1-2 [Compound 5a, tert-butyl (S)-2-(4-(4-(3-guanidinoprop-1-yn-1-yl)phenyl)-2,3,9-trimethyl-6H-thieno[3,2-f][1,2,4]triazolo[4,3-a][1,4]diazepin-6-yl)acetate] | 0.0072 |  |  | -86 | 0.101 | 0.0085 | 87.6 | 0.124
Cc1sc2c(c1C)C(c1ccc(/C=C/CN)cc1)=N[C@@H](CC(=O)OC(C)(C)C)c1nnc(C)n1-2 [Compound 6a, tert-butyl (S,E)-2-(4-(4-(3-aminoprop-1-en-1-yl)phenyl)-2,3,9-trimethyl-6H-thieno[3,2-f][1,2,4]triazolo[4,3-a][1,4]diazepin-6-yl)acetate] |  |  | -77.9 | -73.1 |  |  | 88.4 | 0.002
Cc1sc2c(c1C)C(c1ccc(C#CCO)cc1)=N[C@@H](CC(=O)OC(C)(C)C)c1nnc(C)n1-2 [Compound 7a, tert-butyl (S)-2-(4-(4-(3-hydroxyprop-1-yn-1-yl)phenyl)-2,3,9-trimethyl-6H-thieno[3,2-f][1,2,4]triazolo[4,3-a][1,4]diazepin-6-yl)acetate] | 0.0178 |  |  |  | > 20 | 0.0103 | 72.9 | 0.0257
Cc1sc2c(c1C)C(c1ccc(C#CCNO)cc1)=N[C@@H](CC(=O)OC(C)(C)C)c1nnc(C)n1-2 [Compound 8a, tert-butyl (S)-2-(4-(4-(3-(hydroxyamino)prop-1-yn-1-yl)phenyl)-2,3,9-trimethyl-6H-thieno[3,2-f][1,2,4]triazolo[4,3-a][1,4]diazepin-6-yl)acetate] |  |  | -92.2 | -92.6 |  |  | 95.1 | 0.0072
Cc1sc2c(c1C)C(c1ccc(CCCN)cc1)=N[C@@H](CC(=O)OC(C)(C)C)c1nnc(C)n1-2 [Compound 9a, tert-butyl (S)-2-(4-(4-(3-aminopropyl)phenyl)-2,3,9-trimethyl-6H-thieno[3,2-f][1,2,4]triazolo[4,3-a][1,4]diazepin-6-yl)acetate] |  |  |  | -57.6 |  |  | 78.1 | 0.0277
Cc1sc2c(c1C)C(c1ccc(C#CC(C)N)cc1)=N[C@@H](CC(=O)OC(C)(C)C)c1nnc(C)n1-2 (stereo partly drawn) [Compound 11a, tert-butyl 2-((6S)-4-(4-(3-aminobut-1-yn-1-yl)phenyl)-2,3,9-trimethyl-6H-thieno[3,2-f][1,2,4]triazolo[4,3-a][1,4]diazepin-6-yl)acetate] | 0.0141 |  |  | -43.3 | > 20 | 0.0106 | 72.5 | 0.0207
Cc1sc2c(c1C)C(c1ccc(C#CC(C)(C)N)cc1)=N[C@@H](CC(=O)OC(C)(C)C)c1nnc(C)n1-2 [Compound 12a, tert-butyl (S)-2-(4-(4-(3-amino-3-methylbut-1-yn-1-yl)phenyl)-2,3,9-trimethyl-6H-thieno[3,2-f][1,2,4]triazolo[4,3-a][1,4]diazepin-6-yl)acetate] |  |  |  |  |  |  | 73.3 | 0.0126
COC(=O)c1cc2c(cc1CS(C)(=O)=O)-c1cn(C)c(=O)c3[nH]cc(c13)CN2c1ncc(C#CCN)cc1F [Compound 15, methyl 4-(5-(3-aminoprop-1-yn-1-yl)-3-fluoropyridin-2-yl)-10-methyl-7-((methylsulfonyl)methyl)-11-oxo-3,4,10,11-tetrahydro-1H-1,4,10-triazadibenzo[cd,f]azulene-6-carboxylate] |  | > 20 |  |  | > 20 |  | 75.7 | 0.0072
Cc1sc2c(c1C)C(c1ccc(Cl)cc1)=N[C@@H](CC(=O)OC(C)(C)C)c1nnc(C)n1-2 [Compound A, tert-butyl (S)-2-(4-(4-chlorophenyl)-2,3,9-trimethyl-6H-thieno[3,2-f][1,2,4]triazolo[4,3-a][1,4]diazepin-6-yl)acetate, reference compound] |  |  |  |  |  |  | 76.3 | 0.0834
